Each structure is given as a SMILES string.

The test concerns MRC5 fibroblast cells. The experiment in a line: Cel Titer Glo cytotoxicity in MRC5 cells. The test is classed as cell-based. The conditions noted are these: Homo sapiens; Table 1, TPP+ linkers, MRC5 cells, 72-hour incubation. On the procedure:
In order to facilitate development of the TPP containing antibiotics, a series of TPP linkers were prepared and tested for their toxicity in MRC5 cells. This library of linkers are shown below: The toxicity of these linkers in MRC5 cells after a 72 hour incubation.

On to `O=C(O)CCCCC[P+](c1ccccc1)(c1ccccc1)c1ccccc1` [AP-3-195], for which the IC50 is above 90 µM.

With `O=C(O)CC[P+](c1ccccc1)(c1ccccc1)c1ccccc1` [AP-4-8], the IC50 was above 90 µM.

Molecule `OCCCCCC[P+](c1ccccc1)(c1ccccc1)c1ccccc1` [AP-5-531] displayed an IC50 above 90 µM.

`OCCC[P+](c1ccccc1)(c1ccccc1)c1ccccc1` [AP-7-242] came in with an IC50 above 90 µM.

For `CC(C)(O)C[P+](c1ccccc1)(c1ccccc1)c1ccccc1` [AP-7-253], the IC50 is above 90 µM.

The molecule `OCc1ccc([P+](c2ccccc2)(c2ccccc2)c2ccccc2)cc1` [AP-8-98] showed an IC50 of 57.6 µM.

The molecule `O=C(O)c1ccc([P+](c2ccccc2)(c2ccccc2)c2ccccc2)cc1` [AP-8-99-1] displayed an IC50 above 90 µM.

A word on the IC50: it is the concentration at which inhibition is half-maximal.

The values above are taken from US20250250292A1, “DELIVERY SYSTEM TO TARGET GRAM-NEGATIVE BACTERIA” (priority 2022, published 2025).
